Source: patent publication EP0091328B1, “Trans-4-aminobenz(c,d)indol-5-ol derivatives, their salts, their preparation, their use as medicaments and compositions containing them” (priority 1982, dated 1983)
Where a name gives a salt, the structure may show the parent alone.

Assays:
[1] = system: souris; test: Acute toxicity, lethal dose DL0 after oral administration; assay type: in vivo; settings: mouse, maximal dose causing no mortality in 8 days
Source text: 4) Etude de la toxicité aiguë
On a évalué les doses létales DLo des différents composés testés après administration par voie orale chez la souris.
On appelle DLo la dose maximale ne provoquant aucune mortalité en 8 jours.

[2] = system: rats mâles de souche WISTAR; test: Hypotensive activity in anaesthetised rats (carotid arterial pressure, intravenous administration); assay type: in vivo; settings: anaesthetised Wistar rat, versus initial control pressure
Method: 1) Détermination de l'activité hypotensive
L'activité hypotensive a été étudiée sur des rats mâles de souche WISTAR pesant 300 g environ et anesthésiés au nembutal (50 mg/kg par voie intraveineuse).
Le produit testé a été administré par voie intraveineuse dans la veine jugulaire.
La pression artérielle càrotidienne a été mesurée avant et après administration du produit testé.
Le tableau ci-après indique les variations exprimées en pourcentage de la pression artérielle après- administration du produit testé par rapport à la pression artérielle témoin initiale.

N[C@@H]1CC2CNc3cccc(c32)[C@H]1O (mixture of isomers) [Exemple 1, dichlorhydratede trans 4RS 4-amino 1,2,2a.3,4,5-hexahydro benz(c,d) indol-5-0l]
DL0 [1]: >400 mg/kg

CN[C@@H]1CC2CNc3cccc(c32)[C@H]1O (mixture of isomers) [Exemple 2, Fumarate neutrede trans 4RS 4-(méthylamino) 1,2,2a,3,4,5-hexahydro benz(c,d) indol-5-0l]
DL0 [1]: >800 mg/kg

CCN[C@@H]1CC2CNc3cccc(c32)[C@H]1O (mixture of isomers) [Exemple 3, Fumarate neutrede trans 4RS 4-(éthylamino) 1,2,2a,3,4,5-hexahydro benz(c,d) indol-5-ol]
DL0 [1]: >400 mg/kg

CN[C@@H]1Cc2c[nH]c3cccc(c23)[C@H]1O (racemic) [Exemple 7, Chlorhydratede trans 4RS 4-(méthylamino) 1,3,4,5-tétrahydro benz(c,d) indol-5-0l]
DL0 [1]: >400 mg/kg

CCN[C@@H]1Cc2c[nH]c3cccc(c23)[C@H]1O (racemic) [Exemple 8, Chlorhydratede trans 4RS 4-(éthylamino) 1,3,4,5-tétrahydro benz(c,d) indol-5-0l]
Variation % de la pression artérielle 30 minutes après l'administration ([2]; dose 0,1 mg/kg): -13%
DL0 [1]: 80 mg/kg

CCCN[C@@H]1Cc2c[nH]c3cccc(c23)[C@H]1O (racemic) [Exemple 9, Chlorhydratede trans 4RS 4-(propylamino) 1,3,4,5-tétrahydro benz(c,d) indol-5-0l]
Variation % de la pression artérielle 30 minutes après l'administration ([2]; dose 1 mg/kg): -30%
DL0 [1]: 60 mg/kg

CC(C)N[C@@H]1Cc2c[nH]c3cccc(c23)[C@H]1O (racemic) [Exemple 10, Chlorhydratede trans 4RS 4-(isopropylamino) 1,3,4,5-tétrahydro benz(c,d) indol-5-0l]
Variation % de la pression artérielle 30 minutes après l'administration ([2]; dose 1 mg/kg): -24%
DL0 [1]: 100 mg/kg

trans 4RS 4-(isopropylamino) 1,,2a,3,4,5-hexahydrobenz(c,d) indol-5-ol [Exemple 5]
DL0 [1]: 200 mg/kg

trans 4RS 4-(propylamino) 1,2,2a,3,4,5-hexahydrobenz(c,d) indol-5--ol [Exemple 4]
DL0 [1]: 200 mg/kg
